Experimental data as given in patent publication US12077503B2, “Substituted cyclic amides and their use as herbicides” (FMC CORPORATION, priority 2015, dated 2024).
Like-named read-outs stand apart in the source and are kept apart here.

Key:
Format in all cases: in vivo
[1] = system: pigweed (Amaranthus retroflexus); assay: Test A preemergence; details: Amaranthus retroflexus, pre-emergence, 240 h; for pest or weed control at 125 g/ha: 125 g ai/ha; for pest or weed control at 500 g/ha: 500 g ai/ha
[2] = system: Galium (catchweed bedstraw, Galium aparine); assay: Test A postemergence; details: Galium, post-emergence, 240 h, postemergence; for pest or weed control at 125 g/ha: 125 g ai/ha; for pest or weed control at 500 g/ha: 500 g ai/ha, 0 to 100 scale, 0 is no effect, 100 is complete control
How it was run: (§1)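 Ratings of 0 (no effect) to 100 (complete control) come from visual comparison with untreated controls roughly 10 d after treatment. Test chemicals, formulated in a non-phytotoxic solvent mixture with surfactant, were applied either as a preemergence directed soil spray on seeded soil or postemergence to one- to two-leaf plants 2 to 10 cm tall.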

Kochia (Kochia scoparia) = assay: Test A postemergence; details: Bassia scoparia, post-emergence, 240 h, postemergence; for pest or weed control at 125 g/ha: 125 g ai/ha; for pest or weed control at 500 g/ha: 500 g ai/ha, 0 to 100 scale, 0 is no effect, 100 is complete control
How it was run: as §1

[3] = system: barnyardgrass (Echinochloa crus-galli); assay: Test A postemergence; details: Echinochloa crus-galli, post-emergence, 240 h, postemergence; for pest or weed control at 125 g/ha: 125 g ai/ha; for pest or weed control at 500 g/ha: 500 g ai/ha, 0 to 100 scale, 0 is no effect, 100 is complete control
How it was run: as §1

[4] = system: blackgrass (Alopecurus myosuroides); assay: Test A postemergence; details: Alopecurus myosuroides, post-emergence, 240 h, postemergence; for pest or weed control at 125 g/ha: 125 g ai/ha; for pest or weed control at 500 g/ha: 500 g ai/ha, 0 to 100 scale, 0 is no effect, 100 is complete control
How it was run: as §1

corn (Zea mays) = assay: Test A postemergence; details: Zea mays, post-emergence, 240 h, postemergence; for plant injury at 125 g/ha: 125 g ai/ha; for plant injury at 500 g/ha: 500 g ai/ha, 0 to 100 scale, 0 is no effect, 100 is complete control
How it was run: as §1

[5] = system: giant foxtail (Setaria faberii); assay: Test A postemergence; details: Setaria faberi, post-emergence, 240 h, postemergence; for pest or weed control at 125 g/ha: 125 g ai/ha; for pest or weed control at 500 g/ha: 500 g ai/ha, 0 to 100 scale, 0 is no effect, 100 is complete control
How it was run: as §1

[6] = system: pigweed (Amaranthus retroflexus); assay: Test A postemergence; details: Amaranthus retroflexus, post-emergence, 240 h, postemergence; for pest or weed control at 125 g/ha: 125 g ai/ha; for pest or weed control at 500 g/ha: 500 g ai/ha, 0 to 100 scale, 0 is no effect, 100 is complete control
How it was run: as §1

[7] = system: ragweed (common ragweed, Ambrosia elatior); assay: Test A postemergence; details: Ambrosia artemisiifolia, post-emergence, 240 h, postemergence; for pest or weed control at 125 g/ha: 125 g ai/ha; for pest or weed control at 500 g/ha: 500 g ai/ha, 0 to 100 scale, 0 is no effect, 100 is complete control
How it was run: as §1

[8] = system: ryegrass, Italian (Italian ryegrass, Lolium multiflorum); assay: Test A postemergence; details: Lolium multiflorum, post-emergence, 240 h, postemergence; for pest or weed control at 125 g/ha: 125 g ai/ha; for pest or weed control at 500 g/ha: 500 g ai/ha, 0 to 100 scale, 0 is no effect, 100 is complete control
How it was run: as §1

[9] = system: wheat (Triticum aestivum); assay: Test A postemergence; details: Triticum aestivum, post-emergence, 240 h, postemergence; for plant injury at 125 g/ha: 125 g ai/ha; for plant injury at 500 g/ha: 500 g ai/ha, 0 to 100 scale, 0 is no effect, 100 is complete control
How it was run: as §1

[10] = system: barnyardgrass (Echinochloa crus-galli); assay: Test B flooded paddy test; details: Echinochloa crus-galli, 250 g ai/ha, Flood, read-out: Barnyardgrass plant response rating
How it was run: (§2)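 Visual ratings (0 none to 100 complete control) are relative to untreated plants, taken 13–15 d after treatment in a greenhouse. Test material went straight into floodwater standing 3 cm above the soil, kept constant, on plants at the 2-leaf stage.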

[11] = system: ducksalad (Heteranthera limosa); assay: Test B flooded paddy test; details: Heteranthera limosa, 250 g ai/ha, Flood, read-out: Ducksalad plant response rating
How it was run: as §2

rice (Oryra sativa) = assay: Test B flooded paddy test; details: Oryza sativa, 250 g ai/ha, Flood, read-out: Rice plant response rating
How it was run: as §2

[12] = system: sedge, umbrella (small-flower umbrella sedge, Cyperus difformis); assay: Test B flooded paddy test; details: Cyperus difformis, 250 g ai/ha, Flood, read-out: Sedge, Umbrella plant response rating
How it was run: as §2

[13] = preemergence, 0 to 100 scale where 0 is no effect and 100 is complete control, approx. 10 d, read-out: Pigweed plant response rating
[14] = preemergence, 0 to 100 scale where 0 is no effect and 100 is complete control, read-out: Pigweed plant response rating
[15] = visual injury on 0 to 100 scale (0 no effect, 100 complete control), approx. 10 d, read-out: Galium plant response rating
[16] = read-out: Galium plant response rating
[17] = visual injury on 0 to 100 scale (0 no effect, 100 complete control), approx. 10 d, read-out: Kochia plant response rating
[18] = read-out: Kochia plant response rating
[19] = visual injury on 0 to 100 scale (0 no effect, 100 complete control), approx. 10 d, read-out: Barnyardgrass plant response rating
[20] = read-out: Barnyardgrass plant response rating
[21] = visual injury on 0 to 100 scale (0 no effect, 100 complete control), approx. 10 d, read-out: Blackgrass plant response rating
[22] = read-out: Blackgrass plant response rating
[23] = visual injury on 0 to 100 scale (0 no effect, 100 complete control), approx. 10 d, read-out: Corn plant response rating
[24] = read-out: Corn plant response rating
[25] = visual injury on 0 to 100 scale (0 no effect, 100 complete control), approx. 10 d, read-out: Foxtail, Giant plant response rating
[26] = read-out: Foxtail, Giant plant response rating
[27] = visual injury on 0 to 100 scale (0 no effect, 100 complete control), approx. 10 d, read-out: Pigweed plant response rating
[28] = read-out: Pigweed plant response rating
[29] = visual injury on 0 to 100 scale (0 no effect, 100 complete control), approx. 10 d, read-out: Ragweed plant response rating
[30] = read-out: Ragweed plant response rating
[31] = visual injury on 0 to 100 scale (0 no effect, 100 complete control), approx. 10 d, read-out: Ryegrass, Italian plant response rating
[32] = read-out: Ryegrass, Italian plant response rating
[33] = visual injury on 0 to 100 scale (0 no effect, 100 complete control), approx. 10 d, read-out: Wheat plant response rating
[34] = read-out: Wheat plant response rating
[35] = 0 to 100 scale where 0 is no effect and 100 is complete control
[36] = scale of 0 to 100 where 0 is no effect and 100 is complete control

SMILES	pest or weed control at 125 g/ha [1, 13] [%]	pest or weed control at 500 g/ha [1, 14] [%]	pest or weed control at 125 g/ha [2, 15] [%]	pest or weed control at 500 g/ha [2, 16] [%]	pest or weed control at 125 g/ha (Kochia (Kochia scoparia); [17]) [%]	pest or weed control at 500 g/ha (Kochia (Kochia scoparia); [18]) [%]	pest or weed control at 125 g/ha [3, 19] [%]	pest or weed control at 500 g/ha [3, 20] [%]	pest or weed control at 125 g/ha [4, 21] [%]	pest or weed control at 500 g/ha [4, 22] [%]	plant injury at 125 g/ha (corn (Zea mays); [23]) [%]	plant injury at 500 g/ha (corn (Zea mays); [24]) [%]	pest or weed control at 125 g/ha [5, 25] [%]	pest or weed control at 500 g/ha [5, 26] [%]	pest or weed control at 125 g/ha [6, 27] [%]	pest or weed control at 500 g/ha [6, 28] [%]	pest or weed control at 125 g/ha [7, 29] [%]	pest or weed control at 500 g/ha [7, 30] [%]	pest or weed control at 125 g/ha [8, 31] [%]	pest or weed control at 500 g/ha [8, 32] [%]	also measured
CN1C[C@H](c2csc3ccccc23)[C@@H](C(=O)Nc2cccc(F)c2F)C1=O [Compound 1115]	0	40	0	30	20	40	80	90	30	40	40	50	70	90	20	20	0	30	20	40	plant injury at 125 g/ha [9, 33]: 20%; plant injury at 500 g/ha [9, 34]: 30%; pest or weed control at 250 g/ha [10, 35]: 45%; pest or weed control at 250 g/ha [11, 35]: 90%; pest or weed control at 250 g/ha (rice (Oryra sativa); [35]): 30%; pest or weed control at 250 g/ha [12, 35]: 0%
O=C1NC[C@H](c2csc(C(F)F)c2)[C@H]1C(=O)Nc1cccc(F)c1F [Compound 1119]	0	30	40	50	40	60	80	90	50	70	20	30	30	70	0	20	20	60	30	30	plant injury at 125 g/ha [9, 33]: 20%; plant injury at 500 g/ha [9, 34]: 50%; pest or weed control at 250 g/ha [10, 35]: 60%; pest or weed control at 250 g/ha [11, 35]: 100%; pest or weed control at 250 g/ha (rice (Oryra sativa); [35]): 20%; pest or weed control at 250 g/ha [12, 35]: 50%
Cc1c(F)cccc1NC(=O)[C@H]1C(=O)NC[C@@H]1c1cccc(C(F)(F)F)c1 [Compound 826]																					pest or weed control at 125 g/ha [1, 14]: 0%; pest or weed control at 500 g/ha ([1]; Preemergence, visual injury vs untreated controls after approximately 10 d, read-out: Pigweed plant response rating (0 to 100 scale where 0 is no effect and 100 is complete control)): 60%; pest or weed control at 125 g/ha ([2]; visual injury rating after approximately 10 d, read-out: Galium plant response rating (0 to 100 scale, 0 no effect, 100 complete control)): 50%; pest or weed control at 125 g/ha (Kochia (Kochia scoparia); visual injury rating after approximately 10 d, read-out: Kochia plant response rating (0 to 100 scale, 0 no effect, 100 complete control)): 30%; pest or weed control at 125 g/ha ([3]; visual injury rating after approximately 10 d, read-out: Barnyardgrass plant response rating (0 to 100 scale, 0 no effect, 100 complete control)): 100%; pest or weed control at 125 g/ha ([4]; visual injury rating after approximately 10 d, read-out: Blackgrass plant response rating (0 to 100 scale, 0 no effect, 100 complete control)): 80%; plant injury at 125 g/ha (corn (Zea mays); visual injury rating after approximately 10 d, read-out: Corn plant response rating (0 to 100 scale, 0 no effect, 100 complete control)): 80%; pest or weed control at 125 g/ha ([5]; visual injury rating after approximately 10 d, read-out: Foxtail, Giant plant response rating (0 to 100 scale, 0 no effect, 100 complete control)): 90%; pest or weed control at 125 g/ha ([6]; visual injury rating after approximately 10 d, read-out: Pigweed plant response rating (0 to 100 scale, 0 no effect, 100 complete control)): 30%; pest or weed control at 125 g/ha ([7]; visual injury rating after approximately 10 d, read-out: Ragweed plant response rating (0 to 100 scale, 0 no effect, 100 complete control)): 50%; pest or weed control at 125 g/ha ([8]; visual injury rating after approximately 10 d, read-out: Ryegrass, Italian plant response rating (0 to 100 scale, 0 no effect, 100 complete control)): 60%; plant injury at 125 g/ha ([9]; visual injury rating after approximately 10 d, read-out: Wheat plant response rating (0 to 100 scale, 0 no effect, 100 complete control)): 60%; pest or weed control at 250 g/ha [10, 36]: 65%; pest or weed control at 250 g/ha [11, 36]: 100%; pest or weed control at 250 g/ha (rice (Oryra sativa); [36]): 0%; pest or weed control at 250 g/ha [12, 36]: 0%
